Where no end group is shown, it is not given here.
What was measured:
Assay in all cases: Histone peptide microarray
Type in all cases: binding, human
AIRE (PP) = conditions: AIRE (PP); sheet "Array Heatmap"; each array performed twice, total n = 4
Description: (§1) To more comprehensively define the histone interactions of the 31 PHD readers identified from the domain microarray analyses, we probed each on an alternate microarray platform containing a library of 293 synthetic histone peptides with single or combinatorial PTMs (Additional file 2: Figure S4 and Additional file 3: Table S2).
(§2) The 31 GST-tagged PHD readers identified in the PHD finger domain array were expressed and purified as previously. Histone peptide arrays and peptide pulldown assays were conducted as recently described (specifically, the optimized protocol from Petell et al. for the former).
(§3) Supplementary file 13072_2020_328_MOESM3_ESM.xlsx: Additional file 3: Table S2. […] Excel Tab Peptide List is a compiled list of the entire 293 histone peptide library with amino acid sequence ranges. […] Each number corresponds to the peptide number designated in Peptide List. Excel Tab Average Signals is a compiled set of binding data: chromatin reader at 0.5 μM vs. entire 293 peptide library. Data is presented as the average and standard deviation of 4 replicates. The average signals are colored to indicate signal intensity with green being strong and white being weak/low. […] Key: red= stronger relative binding; blue = weaker relative binding. Excel Tab Array info summary is a table summarizing the domains, sequence coverage, array signal range, and noise for each of the GST-tagged readers assayed on the peptide microarrays.

BAZ2B = conditions: BAZ2B; sheet "Array Heatmap"; each array performed twice, total n = 4
Description: as §1, §2, §3

BPTF (PB) = conditions: BPTF (PB); sheet "Array Heatmap"; each array performed twice, total n = 4
Description: as §1, §2, §3

CHD4 (PPCC) = conditions: CHD4 (PPCC); sheet "Array Heatmap"; each array performed twice, total n = 4
Description: as §1, §2, §3

CHD5 (PCC) = conditions: CHD5 (PCC); sheet "Array Heatmap"; each array performed twice, total n = 4
Description: as §1, §2, §3

CHD5 (PPCC) = conditions: CHD5 (PPCC); sheet "Array Heatmap"; each array performed twice, total n = 4
Description: as §1, §2, §3

DIDO1 = conditions: DIDO1; sheet "Array Heatmap"; each array performed twice, total n = 4
Description: as §1, §2, §3

DPF2 (PPC2W2) = conditions: DPF2 (PPC2W2); sheet "Array Heatmap"; each array performed twice, total n = 4
Description: as §1, §2, §3

ING1 = conditions: ING1; sheet "Array Heatmap"; each array performed twice, total n = 4
Description: as §1, §2, §3

ING2 = conditions: ING2; sheet "Array Heatmap"; each array performed twice, total n = 4
Description: as §1, §2, §3

ING3 = conditions: ING3; sheet "Array Heatmap"; each array performed twice, total n = 4
Description: as §1, §2, §3

ING4 = conditions: ING4; sheet "Array Heatmap"; each array performed twice, total n = 4
Description: as §1, §2, §3

ING5 = conditions: ING5; sheet "Array Heatmap"; each array performed twice, total n = 4
Description: as §1, §2, §3

KDM4C (TTP) = conditions: KDM4C (TTP); sheet "Array Heatmap"; each array performed twice, total n = 4
Description: as §1, §2, §3

KDM5A (1) = conditions: KDM5A (1); sheet "Array Heatmap"; each array performed twice, total n = 4
Description: as §1, §2, §3

KDM5A (3) = conditions: KDM5A (3); sheet "Array Heatmap"; each array performed twice, total n = 4
Description: as §1, §2, §3

KDM5B (1) = conditions: KDM5B (1); sheet "Array Heatmap"; each array performed twice, total n = 4
Description: as §1, §2, §3

KDM5B (3) = conditions: KDM5B (3); sheet "Array Heatmap"; each array performed twice, total n = 4
Description: as §1, §2, §3

KDM7A = conditions: KDM7A; sheet "Array Heatmap"; each array performed twice, total n = 4
Description: as §1, §2, §3

MLL5 = conditions: MLL5; sheet "Array Heatmap"; each array performed twice, total n = 4
Description: as §1, §2, §3

MORC3 (CW) = conditions: MORC3 (CW); sheet "Array Heatmap"; each array performed twice, total n = 4
Description: as §1, §2, §3

PHF13 = conditions: PHF13; sheet "Array Heatmap"; each array performed twice, total n = 4
Description: as §1, §2, §3

PHF21A = conditions: PHF21A; sheet "Array Heatmap"; each array performed twice, total n = 4
Description: as §1, §2, §3

PHF23 = conditions: PHF23; sheet "Array Heatmap"; each array performed twice, total n = 4
Description: as §1, §2, §3

PHF2 = conditions: PHF2; sheet "Array Heatmap"; each array performed twice, total n = 4
Description: as §1, §2, §3

PHF8 = conditions: PHF8; sheet "Array Heatmap"; each array performed twice, total n = 4
Description: as §1, §2, §3

PHRF1 (RP) = conditions: PHRF1 (RP); sheet "Array Heatmap"; each array performed twice, total n = 4
Description: as §1, §2, §3

RAG2 = conditions: RAG2; sheet "Array Heatmap"; each array performed twice, total n = 4
Description: as §1, §2, §3

SP140L = conditions: SP140L; sheet "Array Heatmap"; each array performed twice, total n = 4
Description: as §1, §2, §3

TAF3 = conditions: TAF3; sheet "Array Heatmap"; each array performed twice, total n = 4
Description: as §1, §2, §3

TRIM66 (PB) = conditions: TRIM66 (PB); sheet "Array Heatmap"; each array performed twice, total n = 4
Description: as §1, §2, §3

Substance	Array Heatmap value (peptide array signal) (AIRE (PP))	Array Heatmap value (peptide array signal) (BAZ2B)	Array Heatmap value (peptide array signal) (BPTF (PB))	Array Heatmap value (peptide array signal) (CHD4 (PPCC))	Array Heatmap value (peptide array signal) (CHD5 (PCC))	Array Heatmap value (peptide array signal) (CHD5 (PPCC))	Array Heatmap value (peptide array signal) (DIDO1)	Array Heatmap value (peptide array signal) (DPF2 (PPC2W2))	Array Heatmap value (peptide array signal) (ING1)	Array Heatmap value (peptide array signal) (ING2)	Array Heatmap value (peptide array signal) (ING3)	Array Heatmap value (peptide array signal) (ING4)	Array Heatmap value (peptide array signal) (ING5)	Array Heatmap value (peptide array signal) (KDM4C (TTP))	Array Heatmap value (peptide array signal) (KDM5A (1))	Array Heatmap value (peptide array signal) (KDM5A (3))	Array Heatmap value (peptide array signal) (KDM5B (1))	Array Heatmap value (peptide array signal) (KDM5B (3))	Array Heatmap value (peptide array signal) (KDM7A)	Array Heatmap value (peptide array signal) (MLL5)	also measured
H2A.X (1-17): H2AX 1-17 (SGRGKTGGKARAKAKSR; UniProt P16104 2-18, looked up, fragment)	0.5574	0.5024	0.3452	0.5416	0.8255	0.5657	0.6032	0.6636	0.4806	0.5852	0.4419	0.4775	0.3684	0.5423	0.4987	0.4093	0.6651	0.4974	0.5198	0.5474	Array Heatmap value (peptide array signal) (MORC3 (CW)): 0.3549; Array Heatmap value (peptide array signal) (PHF13): 0.6046; Array Heatmap value (peptide array signal) (PHF21A): 0.4705; Array Heatmap value (peptide array signal) (PHF23): 0.4786; Array Heatmap value (peptide array signal) (PHF2): 0.3941; Array Heatmap value (peptide array signal) (PHF8): 0.3196; Array Heatmap value (peptide array signal) (PHRF1 (RP)): 0.3918; Array Heatmap value (peptide array signal) (RAG2): 0.2388; Array Heatmap value (peptide array signal) (SP140L): 0.3804; Array Heatmap value (peptide array signal) (TAF3): 0.2689; Array Heatmap value (peptide array signal) (TRIM66 (PB)): 0.5377
H2A.X K5ac: H2AX 1-17 (SGRGK(Ac)TGGKARAKAKSR; UniProt P16104 2-18, looked up, fragment)	0.4642	0.4631	0.3356	0.5228	0.7832	0.549	0.6192	0.6362	0.4851	0.5785	0.4453	0.4505	0.3639	0.5139	0.4768	0.4343	0.7034	0.4746	0.4169	0.5039	Array Heatmap value (peptide array signal) (MORC3 (CW)): 0.3506; Array Heatmap value (peptide array signal) (PHF13): 0.5821; Array Heatmap value (peptide array signal) (PHF21A): 0.4552; Array Heatmap value (peptide array signal) (PHF23): 0.5099; Array Heatmap value (peptide array signal) (PHF2): 0.3936; Array Heatmap value (peptide array signal) (PHF8): 0.3518; Array Heatmap value (peptide array signal) (PHRF1 (RP)): 0.4233; Array Heatmap value (peptide array signal) (RAG2): 0.2437; Array Heatmap value (peptide array signal) (SP140L): 0.3645; Array Heatmap value (peptide array signal) (TAF3): 0.2702; Array Heatmap value (peptide array signal) (TRIM66 (PB)): 0.5335

— PMC6979384, “Characterization of the plant homeodomain (PHD) reader family for their histone tail interactions” (Epigenetics & Chromatin, 2020)
